This is an account of results in patent publication US20230293535A1, “ERBB/BTK INHIBITORS” (Dizal (Jiangsu) Pharmaceutical Co., Ltd., priority 2018, published 2023).

The structures appear in SMILES notation. Counter-ions that a name gives are not always drawn. A value given as a limit tells only on which side of the number the result lay.

In data set [1] the test system is Her2 exon 20 insertion YVMA transduced NIH-3T3 cell line. Kind of data set: Cell proliferation, Her2 YVMAins NIH-3T3 (CellTiter-Glo, 72 h).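 Further: viable cells quantified by ATP luminescence, growth over a day-zero baseline plate expressed as percent of DMSO control growth, compound dilution series in 10% FBS medium.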 It counts as cell-based. The conditions noted are these: Mus musculus, NIH3T3, 72 h, Her2 YVMAins cells, 72 h proliferation; read-out: Her2 Exon 20 YVMA insertion GI50.
Data set [2] concerns the target T1, BTK (Homo sapiens, UniProt Q06187). Kind of data set: BTK target site occupancy ELISA (Ramos). It counts as cell-based. Also noted: endogenous in cells; host or cells: Ramos. The conditions noted are these: BTK receptor occupancy, read-out: Occupancy (Romas) IC50. (In general: In an ELISA, binding on a coated surface is turned into a signal by an enzyme label.)
Protocol: (§1) An enzyme-linked immunosorbent assay (ELISA) method for the detection of free uninhibited Btk in mouse and human lysates. Human or mouse whole blood were incubated with compound for 2 hour at 37° C. Whole blood were lysed in ice-cold lysis buffer containing 50 mM Tris-HCl, pH 7.5, 150 mM NaCl, 1 mM EDTA,1% Triton X-100. […] Samples were transferred to a streptavidin-coated 96-well ELISA plate and mixed while shaking for 1 hour at room temperature. The α-Btk antibody (1:500; clone number D3H5, Cell signaling Technology, Danvers, MA, USA) was then added to the well and incubated for 1 hour at room temperature. After wash, goat α-rabbit-FW (1:5000 dilution in PBS+ 0.05% Tween-20 + 1% BSA) was added to each well and incubated for 1 h at room temperature. The ELISA was developed with addition of tetramethyl benzidine (TMB) followed by Stop Solution and read at OD 450 nm.
For data set [3], the target named is T2, human Her2 exon 20 insertion mutation YVMA (Homo sapiens, UniProt P04626, INS775YVMA).
T2 construct: expressed in transfected cells; host or cells: NIH-3T3, lentiviral transduction, puromycin selection
Nature of the data set: Her2 Exon 20 YVMA insertion cellular phosphorylation inhibition (MSD p-Her2 Y1248/total Her2).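 Further: lentivirally transduced NIH-3T3 cells in 1% FBS medium, electrochemiluminescent MSD read-out, graded compound concentrations at 37 °C.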 In kind it is cell-based. The following applies: Her2 YVMAins cells, 4 h compound.

In data set [4] the target is T3, human EGFR exon 20 V769_D770insASV (Homo sapiens, UniProt P00533, INS769ASV).
T3 construct: expressed in transfected cells; host or cells: Ba/F3 (DSMZ ACC-300), lentiviral transduction, puromycin selection, IL3 depletion
T3 sequence (P00533 with tags, fused parts or gaps INS769ASV): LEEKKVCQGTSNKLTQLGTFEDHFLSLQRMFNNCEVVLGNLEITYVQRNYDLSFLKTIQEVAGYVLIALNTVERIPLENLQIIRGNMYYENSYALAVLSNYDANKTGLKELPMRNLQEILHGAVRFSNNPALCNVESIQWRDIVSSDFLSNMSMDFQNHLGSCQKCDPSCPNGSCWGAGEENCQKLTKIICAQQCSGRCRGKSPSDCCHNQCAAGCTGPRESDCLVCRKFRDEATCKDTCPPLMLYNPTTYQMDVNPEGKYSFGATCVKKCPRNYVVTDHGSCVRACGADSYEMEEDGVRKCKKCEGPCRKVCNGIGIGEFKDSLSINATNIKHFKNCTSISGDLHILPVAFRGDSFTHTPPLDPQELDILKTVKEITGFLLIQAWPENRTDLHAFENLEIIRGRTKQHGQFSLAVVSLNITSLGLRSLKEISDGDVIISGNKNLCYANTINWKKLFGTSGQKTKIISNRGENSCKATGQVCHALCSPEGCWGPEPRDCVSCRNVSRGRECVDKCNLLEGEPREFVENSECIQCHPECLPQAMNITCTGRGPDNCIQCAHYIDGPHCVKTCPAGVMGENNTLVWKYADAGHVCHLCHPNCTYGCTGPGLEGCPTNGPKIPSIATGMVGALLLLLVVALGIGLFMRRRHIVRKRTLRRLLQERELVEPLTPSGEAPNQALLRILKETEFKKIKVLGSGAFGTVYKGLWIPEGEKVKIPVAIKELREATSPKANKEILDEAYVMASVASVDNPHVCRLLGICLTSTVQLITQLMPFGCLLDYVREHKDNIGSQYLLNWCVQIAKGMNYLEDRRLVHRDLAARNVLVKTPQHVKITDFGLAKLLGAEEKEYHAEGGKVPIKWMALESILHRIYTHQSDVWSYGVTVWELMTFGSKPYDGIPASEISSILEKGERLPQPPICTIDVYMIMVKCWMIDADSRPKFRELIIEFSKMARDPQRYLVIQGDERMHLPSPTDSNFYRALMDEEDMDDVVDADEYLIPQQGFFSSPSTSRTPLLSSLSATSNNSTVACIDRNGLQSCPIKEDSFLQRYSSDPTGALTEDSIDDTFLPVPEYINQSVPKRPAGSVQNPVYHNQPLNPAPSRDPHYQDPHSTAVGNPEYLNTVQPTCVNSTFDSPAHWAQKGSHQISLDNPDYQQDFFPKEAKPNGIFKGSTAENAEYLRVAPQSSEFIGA
Nature of the data set: EGFR Exon20 ASV insertion cellular phosphorylation inhibition (MSD pEGFR Y1068/total EGFR).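 Further: electrochemiluminescent readout on an MSD SECTOR Imager, IL3-independent transduced cells in medium with 1% FBS, compound concentration series at 37 °C and 5% CO2.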 The following applies: Ba/F3 EGFR ASV ins cells, 4 h compound, p-EGFR(Y1068)/total EGFR. It counts as cell-based.

Data set [5] deals with T1, BTK. Kind of data set: BTK target site occupancy ELISA (PBMC). In kind it is cell-based. The following applies: BTK receptor occupancy.
Protocol: as §1
In another data set the test system is Ba/F3 EGFR NPH ins cells. Kind of data set: Cell proliferation, Ba/F3 EGFR NPH ins (CellTiter-Glo, 72 h).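 Further: IL3-independent cells carrying constitutively phosphorylated EGFR, compound dilution series, viable cells quantified by ATP luminescence, growth relative to DMSO wells after subtracting pre-dosing (day 0) baseline.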 In kind it is cell-based. The conditions noted are these: Ba/F3 EGFR, 72 h, Ba/F3 EGFR NPH ins, 72 h proliferation; read-out: EGFR Exon20 NPH insertion GI50. For orientation: In ATP-based viability assays light output follows the ATP content of the culture.

Data set [6] relates to NCI-H1975 EGFR L858R/T790M cells. Kind of data set: Cell proliferation, NCI-H1975 EGFR L858R/T790M (CellTiter-Glo, 72 h).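 Further: viable cells quantified by luciferase-based ATP luminescence, proliferation expressed relative to DMSO-treated wells (100%) after subtracting a parallel plate read at the time of dosing.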 It counts as cell-based. The following applies: Homo sapiens, NCI-H1975, 72 h, NCI-H1975, 72 h proliferation; read-out: EGFR L858R and T790M mutation GI50.
The target in the next data set is T4, WT EGFR (Homo sapiens, UniProt P00533).
T4 construct: host or cells: A-431
T4 sequence (P00533 25-1210): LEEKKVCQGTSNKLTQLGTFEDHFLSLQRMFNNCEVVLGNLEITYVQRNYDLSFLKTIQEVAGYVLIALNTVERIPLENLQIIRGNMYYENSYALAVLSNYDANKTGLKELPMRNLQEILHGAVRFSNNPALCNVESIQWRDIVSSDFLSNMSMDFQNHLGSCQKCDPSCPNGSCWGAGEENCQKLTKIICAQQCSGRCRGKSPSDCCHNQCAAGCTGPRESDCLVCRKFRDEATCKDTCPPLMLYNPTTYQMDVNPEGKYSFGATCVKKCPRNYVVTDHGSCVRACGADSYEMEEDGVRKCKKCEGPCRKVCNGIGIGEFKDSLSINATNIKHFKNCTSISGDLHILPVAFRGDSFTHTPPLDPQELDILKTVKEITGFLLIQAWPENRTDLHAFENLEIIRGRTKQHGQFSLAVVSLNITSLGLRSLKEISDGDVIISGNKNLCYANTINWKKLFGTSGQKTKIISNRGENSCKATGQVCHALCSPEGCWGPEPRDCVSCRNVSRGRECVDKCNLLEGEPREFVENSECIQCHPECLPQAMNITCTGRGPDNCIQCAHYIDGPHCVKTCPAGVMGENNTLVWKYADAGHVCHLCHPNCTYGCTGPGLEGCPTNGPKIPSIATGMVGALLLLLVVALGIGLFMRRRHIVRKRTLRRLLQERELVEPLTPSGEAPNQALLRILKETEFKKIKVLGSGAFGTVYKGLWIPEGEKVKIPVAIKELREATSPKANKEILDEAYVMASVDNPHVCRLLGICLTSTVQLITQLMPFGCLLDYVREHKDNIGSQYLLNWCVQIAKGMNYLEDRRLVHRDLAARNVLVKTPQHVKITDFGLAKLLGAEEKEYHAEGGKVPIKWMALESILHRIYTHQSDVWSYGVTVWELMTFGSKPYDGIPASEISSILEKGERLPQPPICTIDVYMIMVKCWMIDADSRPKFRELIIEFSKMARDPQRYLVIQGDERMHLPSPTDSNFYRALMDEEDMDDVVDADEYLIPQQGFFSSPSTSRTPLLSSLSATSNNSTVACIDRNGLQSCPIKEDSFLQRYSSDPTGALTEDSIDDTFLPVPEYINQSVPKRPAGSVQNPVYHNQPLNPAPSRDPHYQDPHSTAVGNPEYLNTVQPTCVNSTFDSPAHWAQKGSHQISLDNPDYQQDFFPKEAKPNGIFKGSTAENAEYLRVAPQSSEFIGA
Kind of data set: WT EGFR cellular phosphorylation inhibition in A-431 (hEGF stimulated, MSD).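 Further: electrochemiluminescence read-out of EGFR Tyr1068 phosphorylation expressed as ratio to total EGFR, cells kept in medium with 1% FBS, compounds tested as a concentration series.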 It counts as cell-based. The following applies: A431 cells, 4 h compound, then 100 ng/ml hEGF 10 min.

A further data set relates to DB cells. Nature of the data set: BTK (wt) cell proliferation, DB (CellTiter-Glo, 72 h).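 Further: DB cells in 384-well plates given a dilution series of compound, viable cells read by ATP luminescence, growth expressed versus DMSO control after subtracting a time-zero plate reading.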 In kind it is cell-based. The following applies: Homo sapiens, DB, DB cells, CellTiter-Glo, read-out: Non-BCR activated DB GI50.
A further data set deals with Ba/F3 EGFR ASV ins cells. Nature of the data set: Cell proliferation, Ba/F3 EGFR ASV ins (CellTiter-Glo, 72 h).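 Further: IL3-independent Ba/F3 cells transduced with EGFR V769_D770insASV, cellular ATP luminescence after compound exposure, growth relative to DMSO control with the day-0 baseline reading subtracted.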 It counts as cell-based. The following applies: Ba/F3 EGFR, 72 h, Ba/F3 EGFR ASV ins, 72 h proliferation; read-out: EGFR Exon20 ASV insertion GI50.
For a further data set, the system named is Ri-1 cells. Kind of data set: BTK (wt) cell proliferation, Ri-1 (CellTiter-Glo, 72 h).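 Further: viable cells quantified as cellular ATP luminescence, proliferation normalized to a time-zero plate and the DMSO control, compounds tested across a dilution series.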 The following applies: Ri-1, 72 h, Ri-1 cells, 72 h, CellTiter-Glo; read-out: BTK WT Ri-1 GI50. It counts as cell-based.
Another data set addresses T5, EGFR L858R&T790M (Homo sapiens, UniProt P00533, L858R/T790M).
T5 construct: host or cells: NCI-H1975
Kind of data set: EGFR L858R and T790M cellular phosphorylation inhibition in NCI-H1975 (MSD).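 Further: phosphorylated and total EGFR detected by electrochemiluminescence, cells exposed to compound in medium containing 1% FBS at 37 °C.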 It counts as cell-based. The following applies: NCI-H1975 cells, 4 h compound, p-EGFR(Y1068)/total EGFR; read-out: EGFR L858R and T790M mutation IC50.

The test system of another data set is OCI-LY-10 cells. Nature of the data set: BTK (wt) cell proliferation, OCI-LY-10 (CellTiter-Glo, 72 h).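 Further: viable cells quantified via cellular ATP luminescence, proliferation given as percent of DMSO control after subtracting a duplicate plate read at time of dosing.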 It counts as cell-based. The conditions noted are these: Homo sapiens, OCI-Ly10, 72 h, OCI-LY-10 cells, 72 h, CellTiter-Glo; read-out: BTK WT OCI-LY-10 GI50.
Another data set relates to TMD-8 cells. Nature of the data set: BTK (wt) cell proliferation, TMD-8 (CellTiter-Glo, 72 h).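 Further: viable cells quantified by ATP-based luminescence, proliferation expressed as percent of DMSO control after subtracting a time-zero baseline plate read at dosing.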 It counts as cell-based. The following applies: Homo sapiens, TMD8, 72 h, TMD-8 cells, 72 h, CellTiter-Glo; read-out: BTK WT TMD-8 GI50.
For the next data set, the target named is T6, Phospho-BTK (Tyr223) (Homo sapiens, UniProt Q06187).
T6 construct: endogenous in cells; host or cells: Ramos
Nature of the data set: p-BTK assay in Ramos cells (HTRF Phospho-BTK Tyr223). It counts as cell-based. The conditions noted are these: pervanadate stimulated, read-out: p-BTK (Romas) IC50. A general note: Time-resolved FRET reads energy transfer from a long-lived donor to a nearby acceptor.

Data set [7] has as its target T7, human EGFR exon 20 H773_V774insNPH (Homo sapiens, UniProt P00533, INS773NPH).
T7 construct: host or cells: Ba/F3
Nature of the data set: EGFR Exon20 NPH insertion cellular phosphorylation inhibition (MSD pEGFR Y1068/total EGFR).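 Further: IL3-independent Ba/F3 cells with constitutively phosphorylated EGFR, compound exposure at 37 °C under 5% CO2, electrochemiluminescent MSD measurement of the p-EGFR to total EGFR ratio.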 In kind it is cell-based. The following applies: Ba/F3 EGFR NPH ins cells, 4 h compound, p-EGFR(Y1068)/total EGFR.

In the next data set the test system is WT EGFR cell line A-431. Kind of data set: Cell proliferation, WT EGFR A431 (CellTiter-Glo, 72 h).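 Further: proliferation from a luminescent ATP viability signal, expressed as 100 × (treated minus time-zero plate) over (DMSO control minus time-zero plate), cells grown with 10% FBS.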 In kind it is cell-based. The following applies: Homo sapiens, A-431, 72 h, A431, 72 h proliferation; read-out: EGFR WT A431 GI50.
Data set [8] in a line: In vitro rat hepatocytes clearance assay. The following applies: male, rat, cryopreserved rat hepatocytes (suspension), rat hepatocytes Clint (µL/min/10^6cells), 1 µM-range incubation up to 100 min.
Data set [9] can be described thus: Rat pharmacokinetic study after oral administration (SOA). In kind it is in vivo. The following applies: male Han Wistar rats. The procedure:
For rat pharmacokinetic studies, six male Han Wistar rats were purchased from Beijing Vital River and orally dosed with the test compound at 10 mg/kg in 0.5% Tween-80 and 0.5% hydroxypropyl methylcellulose (v/w). At, 0.5, 1, 2, 4, 7 and 16 hours post-dose, blood samples (>100 µL/time point) were collected from portal vein and via cardiac puncture into separate K2EDTA […] tubes, and then immediately centrifuged at 1500 g, 5 min at 4° C. to separate plasma. The plasma samples were deproteinized with 4 fold acetonitrile (including internal standard), vortex for 10 min and centrifuges for 10 minutes at 4000 g at 4° C.. The supernatantswere submitted to LC/MS/MS (API 5500, Applied Biosystems, Foster City) analysis. Two sets of standard curves were run at the beginning and end of each batch from plasma sample analysis.
Compound absorption was measured by portal vein AUC (AUCHPV) and systemic AUC (AUCSYS) observed maximum concentration (Cmax) in rats after oral administration. Dose is the actual dose used in SOA study. Find below in Table 9 data for exemplary tested compounds.

Data set [10] in a line: In vitro human hepatocytes clearance assay. The conditions noted are these: both, human, cryopreserved human hepatocytes (suspension), human hepatocytes Clint (µL/min/10^6cells), mixed gender human hepatocytes, incubation up to 100 min.
Protocol: The protocol for rat/human hepatocytes metabolic stability assay is employed to determine the clearance of the compounds of the present disclosure in vitro.
Rat hepatocytes in male gender and human hepatocytes in mixed gender were obtained from commercial vendors (e.g., BioreclamationIVT) and stored at -150° C. prior to use. 10 mM stock solutions of tested compounds were prepared in DMSO. Thawing medium and supplement incubation medium (serum-free) were placed in a 37° C. water bath for at least 15 minutes prior to use. Stock solutions were diluted to 100 µM by combining 198 µL acetonitrile and 2 µL of 10 mM stock solution.
Vials of cryopreserved hepatocytes were removed from storage, ensured that vials remain at cryogenic temperatures. The vials were thawed in a 37° C. water bath with gently shaking. Vials were kept in water bath until all ice crystals had dissolved and were no longer visible. Vials were sprayed with 70% ethanol before being transferred to a biosafety cabinet. And then the contents were poured into the 50 mL thawing medium conical tube. Vials were centrifuged at 100 g for 10 minutes at room temperature.
Cell viability and density were counted using a Trypan Blue exclusion, and then cells were diluted with serum-free incubation medium to a working cell density of 1 × 10^6 viable cells/ml. […] The inactivated hepatocytes were used to prepare negative samples, which were used to exclude the misleading factor that resulted from instability of chemical itself.
Aliquots of 247.5 µL hepatocytes were dispensed into each well of a 96-well non-coated plate. The plate was placed in the incubator on an orbital shaker for approximately 10 minutes. Aliquots of 2.5 µL of the 100 µM test compounds were added into respective wells of the non-coated 96-well plate to start the reaction. This assay was performed in duplicate. The plate was incubated in the incubator on an orbital shaker for the designed time points. […] Samples were centrifuges for 20 minutes at 4000 g and aliquots of 100 µL of the supernatants were used for LC-MS/MS analysis for measurement of test compounds
In vitro hepatocyte clearance was estimated based on determination of elimination half-life (T½) of compounds disappearance from their initial concentrations. Peak area ratios of each compound (test or control) to IS was calculated. Ln (%Control) versus Incubation Time (min) curve was plotted, and the slope of a linear fitting line was calculated.

T7 sequence (P00533 with tags, fused parts or gaps INS773NPH): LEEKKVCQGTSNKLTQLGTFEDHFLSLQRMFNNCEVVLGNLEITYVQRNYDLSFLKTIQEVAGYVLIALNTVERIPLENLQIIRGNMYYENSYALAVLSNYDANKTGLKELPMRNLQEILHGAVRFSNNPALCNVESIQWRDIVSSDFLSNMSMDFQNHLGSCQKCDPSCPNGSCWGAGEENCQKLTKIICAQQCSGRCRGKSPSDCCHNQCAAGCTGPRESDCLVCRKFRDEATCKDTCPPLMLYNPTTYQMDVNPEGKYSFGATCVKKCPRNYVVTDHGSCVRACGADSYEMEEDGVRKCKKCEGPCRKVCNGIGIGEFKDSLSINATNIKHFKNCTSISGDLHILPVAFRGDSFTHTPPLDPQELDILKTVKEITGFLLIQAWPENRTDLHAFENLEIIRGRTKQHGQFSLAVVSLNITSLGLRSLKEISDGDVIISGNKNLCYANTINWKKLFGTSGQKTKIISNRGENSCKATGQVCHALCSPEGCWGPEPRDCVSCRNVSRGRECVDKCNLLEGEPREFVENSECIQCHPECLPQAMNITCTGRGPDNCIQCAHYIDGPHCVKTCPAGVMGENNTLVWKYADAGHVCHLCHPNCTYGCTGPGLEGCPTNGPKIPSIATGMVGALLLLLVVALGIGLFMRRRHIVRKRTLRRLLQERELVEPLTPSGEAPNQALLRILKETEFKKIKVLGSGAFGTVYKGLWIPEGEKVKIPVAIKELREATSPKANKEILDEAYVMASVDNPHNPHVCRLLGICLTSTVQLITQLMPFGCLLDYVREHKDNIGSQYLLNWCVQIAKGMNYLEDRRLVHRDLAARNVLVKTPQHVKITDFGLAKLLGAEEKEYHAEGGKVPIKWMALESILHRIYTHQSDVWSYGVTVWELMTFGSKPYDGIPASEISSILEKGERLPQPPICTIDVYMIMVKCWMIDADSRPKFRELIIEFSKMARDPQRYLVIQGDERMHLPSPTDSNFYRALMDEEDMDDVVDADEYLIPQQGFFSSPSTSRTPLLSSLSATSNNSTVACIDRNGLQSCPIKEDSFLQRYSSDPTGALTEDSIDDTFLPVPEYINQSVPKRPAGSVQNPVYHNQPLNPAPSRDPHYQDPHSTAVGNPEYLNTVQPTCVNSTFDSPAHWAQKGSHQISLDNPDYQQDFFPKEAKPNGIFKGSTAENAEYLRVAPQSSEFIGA
T5 sequence (P00533 25-1210 T790M/L858R): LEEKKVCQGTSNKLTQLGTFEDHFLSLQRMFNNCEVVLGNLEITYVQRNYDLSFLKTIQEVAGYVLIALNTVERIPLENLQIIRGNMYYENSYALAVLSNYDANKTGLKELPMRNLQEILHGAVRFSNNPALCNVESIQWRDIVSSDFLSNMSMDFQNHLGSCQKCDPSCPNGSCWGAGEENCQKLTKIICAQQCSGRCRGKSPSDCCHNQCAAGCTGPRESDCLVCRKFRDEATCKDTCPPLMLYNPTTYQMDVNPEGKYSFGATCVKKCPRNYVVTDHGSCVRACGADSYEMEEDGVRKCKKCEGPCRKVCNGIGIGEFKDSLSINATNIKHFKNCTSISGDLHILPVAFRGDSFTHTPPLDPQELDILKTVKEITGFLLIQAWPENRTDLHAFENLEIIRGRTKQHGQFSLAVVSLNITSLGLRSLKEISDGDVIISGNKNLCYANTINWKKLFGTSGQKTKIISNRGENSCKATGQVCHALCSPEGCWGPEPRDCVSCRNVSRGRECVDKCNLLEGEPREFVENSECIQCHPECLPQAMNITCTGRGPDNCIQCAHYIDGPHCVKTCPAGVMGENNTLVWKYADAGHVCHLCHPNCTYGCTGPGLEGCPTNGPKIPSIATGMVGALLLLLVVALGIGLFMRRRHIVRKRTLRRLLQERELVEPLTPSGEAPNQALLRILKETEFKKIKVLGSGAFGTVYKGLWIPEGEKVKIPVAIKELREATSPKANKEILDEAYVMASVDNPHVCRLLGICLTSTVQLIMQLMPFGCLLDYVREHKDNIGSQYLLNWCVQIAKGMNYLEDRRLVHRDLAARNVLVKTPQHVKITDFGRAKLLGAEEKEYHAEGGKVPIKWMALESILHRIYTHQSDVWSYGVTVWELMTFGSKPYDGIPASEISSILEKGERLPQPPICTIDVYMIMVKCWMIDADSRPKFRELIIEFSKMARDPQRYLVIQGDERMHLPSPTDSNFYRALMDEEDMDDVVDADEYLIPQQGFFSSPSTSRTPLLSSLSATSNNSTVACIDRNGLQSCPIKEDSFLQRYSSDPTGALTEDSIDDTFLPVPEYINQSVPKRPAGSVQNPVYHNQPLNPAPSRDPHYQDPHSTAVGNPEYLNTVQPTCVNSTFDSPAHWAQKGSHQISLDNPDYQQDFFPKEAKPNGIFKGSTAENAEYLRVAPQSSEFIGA
Protocol for Phospho-BTK (Tyr223): The assay plates were then incubated for 30 minutes at 37° C., 5% CO2. 300 uM Per vanadate (3X) was added to each well and the assay plates were again incubated for 60 minutes at 37° C., 5% CO2. Phospho-BTK (Tyr223) is detected using the HTRF® reagents (Cisbio) according to the manufacturer’s one-plate assay protocol.

By GI50 is commonly meant the concentration that inhibits growth by half. For orientation: IC50 means the midpoint of a concentration-inhibition curve. Turning to `C=CC(=O)Nc1cc(Nc2ncnc(Nc3cc(Cl)c(F)cc3C(C)(C)O)n2)c(OC)cc1N1CC[C@@H]1CN(C)C` [Compound 38, (R)-N-(5-(4-(5-chloro-4-fluoro-2-(2-hydroxypropan-2-yl)phenylamino)-1,3,5-triazin-2-ylamino)-2-(2-((dimethylamino)methyl)azetidin-1-yl)-4-methoxyphenyl)acrylamide], the 50% growth inhibitory concentration (GI50) is 84.8 nM in data set [1]; 59.4 nM with Ba/F3 EGFR NPH ins cells; 3.9 nM in data set [6]; more than 3000 nM with DB cells; 46.2 nM in the data set on Ba/F3 EGFR ASV ins cells; 1.49 nM in the data set with Ri-1 cells. Further, the 50% growth inhibitory concentration (GI50) in the data set with OCI-LY-10 cells is 0.7 nM; in the data set with TMD-8 cells, 1.62 nM; with WT EGFR cell line A-431, 19.7 nM. In addition, the IC50 at BTK [2] amounted to 0.8 nM; in data set [3] it was 9.3 nM; in data set [4], 8 nM; on BTK [5], 1.7 nM; against WT EGFR it was 18.9 nM; on EGFR L858R&T790M, 0.9 nM. In addition, the half-inhibitory concentration (IC50) is 1.3 nM at Phospho-BTK (Tyr223) and 19.6 nM in [7].
Consider `C=CC(=O)Nc1cc(Nc2ncnc(Nc3cc(Cl)c(F)cc3C(C)(C)O)n2)c(OC)cc1N1CC(CN(C)C)C1` [Compound 39, N-(5-(4-(5-chloro-4-fluoro-2-(2-hydroxypropan-2-yl)phenylamino)-1,3,5-triazin-2-ylamino)-2-(3-((dimethylamino)methyl)azetidin-1-yl)-4-methoxyphenyl)acrylamide], for which the GI50 was 69.9 nM in [1]; 71.8 nM in the data set with Ba/F3 EGFR NPH ins cells; 5.5 nM in data set [6]; more than 3000 nM in the data set on DB cells; 76.6 nM in the data set on Ba/F3 EGFR ASV ins cells; 1.47 nM with Ri-1 cells. In addition, the GI50 is 1.74 nM in the data set on OCI-LY-10 cells, 1.69 nM in the data set with TMD-8 cells and 26.5 nM in the data set on WT EGFR cell line A-431. Further, the IC50 at BTK [2] came out at 1 nM; in data set [3], 13.2 nM; in data set [4], 29.9 nM; against BTK [5], 1.3 nM; against WT EGFR it was 30.1 nM; at EGFR L858R&T790M, 1.8 nM. Moreover, the IC50 at Phospho-BTK (Tyr223) was determined as 0.9 nM; in data set [7] it was 45.6 nM.
In general, hepatocyte CLint refers to a measure of how fast metabolising enzymes remove a compound, apart from limits set by blood flow. The Cmax is the maximum level reached in the sampled fluid or tissue. Regarding `C=CC(=O)Nc1cc(Nc2nccc(Nc3cc(Cl)c(F)cc3C(C)(C)O)n2)c(OC)cc1N1CC[C@@H]1CN(C)C` [Compound 53, (R)-N-(5-(4-(5-chloro-4-fluoro-2-(2-hydroxypropan-2-yl)phenylamino)pyrimidin-2-ylamino)-2-(2-((dimethylamino)methyl)azetidin-1-yl)-4-methoxyphenyl)acrylamide], the hepatocyte CLint at 1 µM in data set [8] was 12.3 µL/min/1e6 cells; in [10], 4.04 µL/min/1e6 cells. For the same compound, the GI50 was 137 nM in data set [1]; 89.3 nM with Ba/F3 EGFR NPH ins cells; 4 nM in data set [6]; more than 3000 nM with DB cells; 84 nM in the data set with Ba/F3 EGFR ASV ins cells; 17.1 nM in the data set on Ri-1 cells. Besides, the GI50 was determined as 9.16 nM in the data set on OCI-LY-10 cells, 6.39 nM in the data set with TMD-8 cells and 71.8 nM in the data set with WT EGFR cell line A-431. For the same compound, the IC50 at BTK [2] came to 3.1 nM; in data set [3] it was 10.9 nM; in [4], 25.8 nM; at BTK [5] it was 3.8 nM; at WT EGFR, 139 nM; on EGFR L858R&T790M it was 1.1 nM. Besides, the IC50 on Phospho-BTK (Tyr223) is 3.8 nM; in data set [7] it was 30 nM. Further, in data set [9] (dose-normalised systemic AUC), the “SOA DN AUCSYS (ng·h/mL)/(mg/kg)” value is 116 (ng·h/mL)/(mg/kg). In data set [9] (rat, plasma, nominal 10 mg/kg (actual dose in c1)), this compound registered a Cmax of 195 ng/mL.
On to `C=CC(=O)Nc1cc(Nc2nccc(Nc3cc(Cl)c(F)cc3C(C)(C)O)n2)c(OC)cc1N1CC[C@@H](NC)C1` [Compound 80, (R)-N-(5-(4-(5-chloro-4-fluoro-2-(2-hydroxypropan-2-yl)phenylamino)pyrimidin-2-ylamino)-4-methoxy-2-(3-(methylamino)pyrrolidin-1-yl)phenyl)acr ylamide TFA salt], for which the hepatocyte CLint at 1 µM came to 15.5 µL/min/1e6 cells in data set [8] and 2.81 µL/min/1e6 cells in data set [10]. In addition, the GI50 in data set [1] is 467 nM; with Ba/F3 EGFR NPH ins cells, 220 nM; in data set [6], 14.8 nM; with DB cells, more than 3000 nM; in the data set with Ba/F3 EGFR ASV ins cells, 177 nM; in the data set with Ri-1 cells, more than 3000 nM. Besides, the GI50 with OCI-LY-10 cells was 23.7 nM; in the data set on TMD-8 cells it was 40.2 nM; in the data set with WT EGFR cell line A-431, 81.5 nM. Moreover, the IC50 on BTK [2] was found to be 3.4 nM; in data set [3] it was 51.8 nM; in [4], 36.8 nM; against BTK [5], 5.7 nM; on WT EGFR, 350 nM; at EGFR L858R&T790M it was 4.5 nM. The IC50 was determined as 5.8 nM at Phospho-BTK (Tyr223) and 95 nM in data set [7].
